Source: patent US6838436B1, “Inhibitors of proteasomal activity for stimulating bone growth” (Osteoscreen Inc., priority 1998, dated 2005)

Tested on: hair follicles of skin explants
Assay: Skin explants from mice during telogen (Example 16)
Type: cell-based
Details: 72 hours
Description: In the untreated control explants, the follicles were few and small.

Nc1cc(N2CCCCC2)nc(N)[n+]1[O-] [Minoxidil]
concentrations causing these changes, relative to the proteasome inhibitors: 10,000 fold
